Entries after “also recorded” stand apart in the source; their conditions may differ.
Key:
[1] = target: T1, Human Aβ38, Aβ40 and Aβ42 (Homo sapiens, UniProt P05067); assay: Human Aβ38, Aβ40 and Aβ42 in CSF of hAPPSL Tg mice after 90 days treatment (immunosorbent assay); type: in vivo, mouse; details: twice daily i.p., hAPPSL Tg mice, p-FTAA 1 or 10 mg/kg/day, P9707_003 10 mg/kg/day
T1 construct: from tissue; host or cells: CSF and left brain hemisphere (SDS fraction) of transgenic hAPPSL mice
Procedure: (§1) Vehicle: Phosphate Buffered Saline (PBS; 6.7 mM PO4, 155 mM NaCl, pH=7.3-7.5) (BioWhittaker PBS from Lonza).
(§2) Test item (T.I.): p-FTAA and P9707_003 diluted in vehicle from stock solution in deionized water (10 mg/ml).
(§3) Tg hAPPSL: Transgenic hAPPSL mice over-expressing hAPP(751) under the control of the murine Thy-1 promoter with a C57BL/6xDBA background.
(§4) Human Aβ38, Aβ40 and Aβ42 were determined in homogenates of the left brain hemispheres and in CSF samples of all Tg animals by an immunosorbent assay from Mesoscale Discovery
(§5) 48 hAPP Tg mice plus 4 reserves allocated to 4 different treatment groups were treated with either vehicle only (control), p-FTAA or P9707_003. As an additional control, 12 nTg littermates of the hAPPSL mice (plus 1 reserve) were treated with vehicle only. Starting at 6.5 months of age, female hAPPSL mice were treated with vehicle only, p-FTAA (dosage: 1 or 10 mg/kg/day) or P9707_003 (dosage: 10 mg/kg/day) for 90 days. The Test Items (T.I.s) were administered in Vehicle. Compound and vehicle were administered twice daily i.p. for 90 days. Tg hAPPSL mice with a C57BL/6xDBA background and corresponding nTg littermates at an age of 6.5 months (±2 weeks) were randomly assigned to the treatment groups.
(§6) In the brain homogenate SDS fraction and in CSF of each Tg mouse, human Aβ38, Aβ40 and Aβ42 levels were measured with a Aβ-kit from Mesoscale Discovery. Aβ levels were evaluated in comparison to a peptide standard as pg/mg brain (wet weight) or pg/ml CSF.
Descriptive statistical analysis was performed on all evaluated parameters. All data were represented as mean±standard error of mean (SEM). Grubb's test was used to detect outliers. Normality distribution of the values was tested with Kolmogorov Smirnov normality distribution test. Group differences between all Tg groups were calculated by a parametric ANOVA followed by a Bonferroni post test.

[2] = target: T1, Human Aβ38, Aβ40 and Aβ42; assay: Human Aβ38, Aβ40 and Aβ42 in SDS brain homogenate fraction of hAPPSL Tg mice after 90 days treatment; type: in vivo, mouse; details: twice daily i.p., p-FTAA 1 or 10 mg/kg/day, P9707_003 10 mg/kg/day
Procedure: as §1, §2, §3, §4
48 hAPP Tg mice plus 4 reserves allocated to 4 different treatment groups were treated with either vehicle only (control), p-FTAA or P9707_003. As an additional control, 12 nTg littermates of the hAPPSL mice (plus 1 reserve) were treated with vehicle only. Starting at 6.5 months of age, female hAPPSL mice were treated with vehicle only, p-FTAA (dosage: 1 or 10 mg/kg/day) or P9707_003 (dosage: 10 mg/kg/day) for 90 days. […]
as §6
Descriptive statistical analysis was performed on all evaluated parameters. […] Group differences between all Tg groups were calculated by a parametric ANOVA followed by a Bonferroni post test.

prion = details: Ref: JBC doi: 10.1074/jbc.M112.355958; cited from earlier work
biotinylated Aβ1-42 = target: T2, biotinylated Aβ1-42 (Homo sapiens, UniProt P05067); assay: Inhibition of Abeta oligomerisation (biotinylated Aβ1-42, neutravidin plate, streptavidin-HRP); type: biochemical; details: inhibition of Aβ1-42 aggregation, approximately 12 nM Aβ1-42, PBS pH 7.4, 2% DMSO, 30 min RT
T2 construct: To assure monomerisation of biotinylated Aβ1-42 (Anaspec #23523-0.5) the peptide was thoroughly monomerised; purchased Anaspec 23523-0.5

[3] = system: PHF-tau doubly-phosphorylated at Thr231 and Ser235; assay: Phosphorylation of Tau in neurites crossing amyloid plaques, AT180 IHC, hAPPSL Tg mice; type: in vivo, mouse
Procedure: as §1
Test Item (T.I.): p-FTAA and P9707_003, diluted in vehicle from stock solution in deionized water (10 mg/ml).
as §3
as §5, with “(+2” for “(±2”
Histological evaluations were performed with six randomly chosen cryo-frozen brain hemispheres of treatment groups PBS Control, p-FTAA 1 mg/kg/day, p-FTAA 10 mg/kg/day, and P9707_003 10 mg/kg/day.
15 cryo-sections per level (altogether 5 levels), each 10 μm thick (Leica CM 3050S) were sagittally cut. Brain levels were chosen according to the morphology atlas “The Mouse Brain” from Paxinos and Franklin (2nd edition). The cutting of the five levels started with a random slice, then sampling was continued uniformly and systematically, always retaining 15 slices per level in series and discarding 100 μm in between the levels.
TAU phosphorylation was visualized immunohistochemically using the AT180 antibody. Clone AT180 recognizes PHF-tau doubly-phosphorylated at Thr231 and Ser235.
For determination of amyloid depositions 5 slices (1 from each level) per brain were stained and screened. From each slice five images were captured from 5 defined areas in the brain. The order of these positions reflect the time course of plaque deposition in the APPsl model, which starts in the frontal cortex (P11) at the age of 3 months and then spreads to the medial (P12) and dorsal cortex over age. At six months of age, plaques can be found in the medial cortex (P13), from then plaque load spreads into the hippocampal formation with hot spots in the subiculum (P14) and the dentate gyrus (P15) at the age of nine months.
Mosaic images for plaque load quantification including the whole cortex and hippocampus were recorded on a Zeiss AxioImager.Z1 microscope using high aperture lenses and an AxioVision 4.8 software driven AxioCam MRm (10× lens, 1× optocoupler). Plaques for AT180 quantifcation were imaged with a 20× lens. Detail images for qualitative figures are 40× image stacks collapsed to 2D by the extended depth of field function of AxioVision software.
Descriptive statistical analysis was performed on all evaluated parameters, Kolmogorov Smirnov test were performed to test normal distribution of data. Data in graphs are represented as mean±SEM.

T1 sequence (P05067 672-713 limits assumed): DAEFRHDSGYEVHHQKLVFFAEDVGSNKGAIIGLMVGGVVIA
T2 sequence (P05067 672-713 limits assumed): as above

O=C(O)Cc1cc(-c2ccc(C(=O)O)s2)sc1-c1ccc(-c2sc(-c3ccc(C(=O)O)s3)cc2CC(=O)O)s1 [p-FTAA, reference compound]
CSF Aβ levels [1]: reduced
aggregated Aβ38, Aβ40 and Aβ42 in SDS fraction of brain homogenate [2]: significant SDS soluble Aβ lowering effect; also recorded: reduced
anti-prion potential (prion): pronounced anti-prion potential
IC50 (biotinylated Aβ1-42): 5.01 µM
AT180 load ([3]; 1 mg p-FTAA treatment, position 4): significantly reduced
AT180 load ([3]; 10 mg p-FTAA treatment, positions 4 and 5): highly significant reduction
AT180 IR in plaques of younger history of origin (hippocampal formation, subiculum, dentate gyrus) ([3]; 90 days i.p., hAPPSL Tg mice): drastically reduced

— patent US9359311B2, “Substituted aromatic oligomers” (NEUROSCIOS GMBH, priority 2011, dated 2016)
